Experimental data: patent publication US5001133A, “Benzoic acid derivatives” (Sandoz Ltd., priority 1983, dated 1991)

Experiments:
[1] = test system: M receptors for serotonin; conditions: isolated rabbit vagus nerve; cited from earlier work
[2] = target: T1, serotonin M receptor (Oryctolagus cuniculus, UniProt A0A5F9C9J3); assay: inhibition of the effect of serotonin on the isolated rabbit heart; conditions: antagonism of serotonin, read-out: pA2 (converted)
T1 construct: isolated rabbit heart; from tissue; host or cells: isolated rabbit heart
T1 sequence (A0A5F9C9J3 1-494): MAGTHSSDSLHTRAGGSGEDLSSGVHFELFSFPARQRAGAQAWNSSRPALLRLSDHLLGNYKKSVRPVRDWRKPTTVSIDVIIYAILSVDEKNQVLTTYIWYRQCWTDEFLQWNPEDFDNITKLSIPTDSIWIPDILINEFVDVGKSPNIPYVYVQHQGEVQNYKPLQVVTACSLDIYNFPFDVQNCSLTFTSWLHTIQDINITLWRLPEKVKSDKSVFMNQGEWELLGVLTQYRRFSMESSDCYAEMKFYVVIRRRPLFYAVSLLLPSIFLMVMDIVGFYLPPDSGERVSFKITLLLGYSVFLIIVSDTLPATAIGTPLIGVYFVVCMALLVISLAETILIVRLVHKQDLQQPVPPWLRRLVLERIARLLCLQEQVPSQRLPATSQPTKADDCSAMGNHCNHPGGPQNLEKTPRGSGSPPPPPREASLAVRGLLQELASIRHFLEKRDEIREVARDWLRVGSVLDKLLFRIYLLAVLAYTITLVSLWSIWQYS
Text: The serotonin M receptor antagonist activity is also indicated by inhibiting the effect of serotonin on the isolated rabbit heart according to the method of J.R.Fozard and A.T.Moborak Ali, European Journal of Pharmacology, (1978), 49, 109-112 at concentrations of 10^-11 to 10^-5 M of the compound of the invention. pD'2 or pA2 values may be calculated in the conventional manner.
The compounds of formula I may be administered in similar manner to known standards for use in these utilities. The suitable daily dosage for a particular compound will depend on a number of factors such as its relative potency of activity.

[3] = test system: 5-HT M-receptors; conditions: slow i.v. injection of 10 mg; cited from earlier work
[4] = test system: serotonin M receptor; conditions: blister base, forearm of human volunteers; cited from earlier work

Row | SMILES | block of the action of serotonin on C fibre action potential amplitude [1] | also measured
1 | CCN(CC)C(=O)[C@@H]1C=C2c3cccc4[nH]c(Br)c(c34)C[C@H]2N(C)C1 [BOL--148] | not blocked | –
2 | COC1CC2CC(OC(=O)c3c[nH]c4ccccc34)CC1N2C (stereo not drawn) [Example 2] | – | Kb [2]: 0.01 nM
3 | CCN(CC)CCNC(=O)c1cc(Cl)c(N)cc1OC [Metoclopramide] | – | effect on a migraine attack [3]: immediate beneficial effect
4 | CCN(CC)C(=O)[C@@H]1C=C2c3cccc4[nH]cc(c34)C[C@H]2N(C)C1 [lysergic acid diethylamide] | – | inhibition of the algesic action of serotonin [4]: not inhibited
5 | CC[C@@H](CO)NC(=O)[C@@H]1C=C2c3cccc4c3c(cn4C)C[C@H]2N(C)C1 [methysergide] | not blocked | –
6 | CSc1ccc2c(c1)C(N1CCN(C)CC1)Cc1ccccc1S2 (stereo not drawn) [metitepine] | not blocked | –
